Reference: patent US9464044B2, “Compound having ability to inhibit 11Beta-HSD1 enzyme or pharmaceutically acceptable salt thereof, method for producing same, and pharmaceutical composition containing same as active ingredient” (AHN-GOOK PHARMACEUTICAL CO., LTD., priority 2012, dated 2016)

What was measured:
KKAy mice = experiment: In vivo study of the lowering effect on plasma glucose and plasma insulin in KKAy mouse model; conditions: for levels of plasma glucose and plasma insulin: either 100 mg/kg or 50 mg/kg; for Plasma glucose lowering effect / Plasma insulin lowering effect: oral, 50 mg/kg, 3 weeks, after fasting
11β-HSD1 = 11β-HSD1 (Homo sapiens (Human), UniProt P28845); experiment: 11β-HSD1 inhibiting activity, HTRF assay with human microsomal fractions; assay type: biochemical; conditions: 160 nM cortisone, 200 μM NADPH, 2 h at 37° C.
11β-HSD1, sequence (P28845 whole entry): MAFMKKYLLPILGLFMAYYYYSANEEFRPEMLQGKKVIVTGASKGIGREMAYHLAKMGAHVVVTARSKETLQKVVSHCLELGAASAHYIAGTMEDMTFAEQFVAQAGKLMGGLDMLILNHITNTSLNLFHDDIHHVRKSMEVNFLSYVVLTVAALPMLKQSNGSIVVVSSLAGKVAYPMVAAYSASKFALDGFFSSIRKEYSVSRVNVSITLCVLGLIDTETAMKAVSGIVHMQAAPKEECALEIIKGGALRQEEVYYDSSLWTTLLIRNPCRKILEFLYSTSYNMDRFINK
Experimental: The inhibiting activity of 11β-HSD1 derived from microsomal fractions was measured using the HTRF assay (62CO2PEB, Cisbio). […] Europium (Eu^3+) cryptate and XL665-conjugated cortisol were then added to each well and incubated for an additional 2 h at room temperature. The Cortisol concentration was calculated u sing a calibration curve. The IC50 values were calculated from dose response curves using GraphPad Prism software.

Structure (SMILES): CC(C)(NS(=O)(=O)c1c(F)cccc1F)C(=O)NC1C2CC3CC1CC(C(N)=O)(C3)C2 (stereo not drawn) [Example 84, E-4-[2-(2,6-difluoro-benzenesulfonylamino)-2-methylpropanamido]adamantan-1-carboxylic acid amide]
- levels of plasma glucose and plasma insulin (KKAy mice): significantly reduced
- Plasma glucose lowering effect (KKAy mice): 19%
- Plasma insulin lowering effect (KKAy mice): 43%

Structure (SMILES): NC(=O)C12CC3CC(C1)C(NC(=O)c1cccc(NS(=O)(=O)c4cc(Cl)cc(Cl)c4)c1)C(C3)C2 (stereo not drawn) [Example 119, E-4-[3-(3,5-dichloro-benzenesulfonylamino)benzamido]-adamantan-1-carboxylic acid amide]
- levels of plasma glucose and plasma insulin (KKAy mice): significantly reduced
- Plasma glucose lowering effect (KKAy mice): 47%
- Plasma insulin lowering effect (KKAy mice): 52%

Structure (SMILES): CC(C)(CNS(=O)(=O)c1cccc(Cl)c1)C(=O)NC1C2CC3CC1CC(C(N)=O)(C3)C2 (stereo not drawn) [Example 67, E-4-(3-(3-chlorobenzenesulfonylamino)-2,2-dimethylpropanamido)adamantan-1-carboxylic acid amide]
- IC50 (11β-HSD1): 7.1 nM

Structure (SMILES): CN(CC1(C(=O)NC2C3CC4CC2CC(C(N)=O)(C4)C3)CC1)S(=O)(=O)c1ccccc1F (stereo not drawn) [Example 22, E-4-[1-((2-fluoro-N-methyl-benzenesulfonylamino)methyl)cyclopropanecarboxamido]-adamantan-1-carboxylic acid amide]
- levels of plasma glucose and plasma insulin (KKAy mice): significantly reduced

Structure (SMILES): Cn1nccc1S(=O)(=O)NC1(C(=O)NC2C3CC4CC2CC(C(N)=O)(C4)C3)CC1 (stereo not drawn) [Example 58, E-4-[1-(1-methyl-1H-pyrazole-5-sulfonylamino)cyclopropanecarboxamido]-adamantan-1-carboxylic acid amide]
- IC50 (11β-HSD1): 17.3 nM

Structure (SMILES): NC(=O)C12CC3CC(C1)C(NC(=O)c1cccc(NS(=O)(=O)c4ccccc4)c1)C(C3)C2 (stereo not drawn) [Example 105]
- IC50 (11β-HSD1): 42.7 nM

Structure (SMILES): NC(=O)C12CC3CC(C1)C(NC(=O)c1cccc(NS(=O)(=O)c4cccc(Cl)c4)c1F)C(C3)C2 (stereo not drawn) [Example 132, E-4-[2-fluoro-3-(3-chlorobenzenesulfonylamino)benzamido]adamantan-1-carboxylic acid amide]
- IC50 (11β-HSD1): 148 nM

Structure (SMILES): NC(=O)C12CC3CC(C1)C(NC(=O)c1cccc(NS(=O)(=O)c4ccco4)c1)C(C3)C2 (stereo not drawn) [Example 103, E-4-[3-(furan-2-sulfonylamino)-benzamido]-adamantan-1-carboxylic acid amide]
- IC50 (11β-HSD1): 23.8 nM

Structure (SMILES): NC(=O)C12CC3CC(C1)C(NC(=O)C1(NS(=O)(=O)c4ccc(F)cc4F)CC1)C(C3)C2 (stereo not drawn) [Example 44]
- IC50 (11β-HSD1): 79.1 nM

Structure (SMILES): Cc1cc(S(=O)(=O)NCC2(C(=O)NC3C4CC5CC3CC(C(N)=O)(C5)C4)CC2)c(F)cc1Cl (stereo not drawn) [Example 15, E-4-[1-((4-chloro-2-fluoro-5-methyl-benzenesulfonylamino)methyl)cyclopropanecarboxamido]-adamantan-1-carboxylic acid amide]
- IC50 (11β-HSD1): 28 nM

Structure (SMILES): NC(=O)C12CC3CC(C1)C(NC(=O)C1(CNS(=O)(=O)c4ccccc4F)CC1)C(C3)C2 (stereo not drawn) [Example 3, E-4-[1-((2-fluoro-benzenesulfonylamino)methyl)cyclopropanecarboxamido]-adamantan-1-carboxylic acid amide]
- levels of plasma glucose and plasma insulin (KKAy mice): significantly reduced

Structure (SMILES): NC(=O)C12CC3CC(C1)C(NC(=O)C1(CNS(=O)(=O)c4cccc(Cl)c4)CC1)C(C3)C2 (stereo not drawn) [Example 7, E-4-[1-((3-chloro-benzenesulfonylamino)methyl)cyclopropanecarboxamido]-adamantan-1-carboxylic acid amide]
- IC50 (11β-HSD1): 2.6 nM

Structure (SMILES): NC(=O)C12CC3CC(C1)C(NC(=O)C1(CNS(=O)(=O)c4ccc(F)c(F)c4)CC1)C(C3)C2 (stereo not drawn) [Example 21, E-4-[1-((3,4-difluoro-benzenesulfonylamino)methyl)cyclopropanecarboxamido]-adamantan-1-carboxylic acid amide]
- IC50 (11β-HSD1): 30.8 nM

Structure (SMILES): NC(=O)C12CC3CC(C1)C(NC(=O)C1(CNS(=O)(=O)c4ccco4)CC1)C(C3)C2 (stereo not drawn) [Example 17, E-4-[1-((furan-2-sulfonylamino)methyl)cyclopropanecarboxamido]-adamantan-1-carboxylic acid amide]
- IC50 (11β-HSD1): 132 nM
